Tested on: Rhodobacter sphaeroides 2.4.1 SodB1 [KCTC 11069BP]
Test: Antioxidant screening by growth of SodB1 mutant bacteria on chlorophyllide-added medium blocks or filter discs
Assay type: cell-based
Details: sample dissolved in ethanol or dimethylsulfoxide, FIG. 5
Protocol: Next, an antioxidant sample and SodB1 mutant bacteria were added to these medium blocks, or otherwise chlorophyllide (0.1 to 100 mM) was added directly to filter discs to which a desired concentration of an antioxidant candidate material was then added. Thereafter, multimeric protein-expressing SodB1 mutant bacteria, i.e. Rhodobacter sphaeroides 2.4.1 SodB1 [KCTC 11069BP], were plated on a Sistrom's minimal medium [20 mM potassium dihydrogen phosphate (KH2PO4), 3.8 mM ammonium sulfate ((NH4)2SO4), 34 mM succinic acid, 0.59 mM L-glutamic acid, 0.30 mM L-aspartic acid, 8.5 mM sodium chloride, 1.05 mM nitrilotriacetic acid, 1.2 mM magnesium chloride (MgCl2.6H2O), 0.23 mM calcium chloride (CaCl2.7H2O), 25 μM ferrous sulfate (FeSO4.7H2O), 0.16 μM ammonium molybdate ((NH4)6Mo7O24.4H2O), 4.7 μM EDTA, 38 μM zinc sulfate (ZnSO4.7H2O), 9.1 μM manganese sulfate (MnSO4.H2O), 1.6 μM copper sulfate (CuSO4.5H2O), 0.85 μM cobalt (II) nitrate (Co(NO3)2.6H2O), 1.8 μM boric acid (H3BO3), 8.1 μM nicotinic acid, 1.5 μM thiamine hydrochloride, and 41 nM biotin] (Sistrom, W. R, 1962. J. Gen. Microbiol. 28: 607-616).
As a result, when there was an antioxidant activity in the antioxidant candidate material to be screened, cells grew only on the medium blocks or around filter discs and thus red bacteria were observed. […]

| Compound | cell growth of SodB1 mutant bacteria / prevention of cell death (antioxidant activity) |
| --- | --- |
| O=c1c(O)c(-c2ccc(O)c(O)c2)oc2cc(O)cc(O)c12 [quercetin] | partial cell growth |
| tocopherol | partial cell growth |

Reference: patent US7892780B2, “Method for screening antioxidant using mutant bacteria and chlorophyllide, and antioxidant screened by the method” (Industry-University Cooperation Foundation Sogang University, priority 2007, dated 2011)
